The numbers were not newly measured in patent US20200123146A1, “HETEROCYCLIC INTEGRIN AGONISTS” (GB006, Inc., priority 2016, published 2020), which cites them from elsewhere.

Molecules are shown by their SMILES.

For data set [1] the following is noted: in vivo; cited from earlier work.
For data set [2] the following is noted: mice; cited from earlier work.
For data set [3] the following is noted: in vivo; cited from earlier work. This is another data set of the same source.
The next data set has as its system tumor. To be noted: in vivo; cited from earlier work.
For data set [4] the following is noted: in vivo; cited from earlier work. This is another data set of the same source.
For data set [5] the following is noted: in vivo; cited from earlier work. This is another data set of the same source.
The test system of a further data set is leukocytes. To be noted: acute peritonitis in mice; cited from earlier work.
The conditions of data set [6]: upon vascular injury in rats; cited from earlier work.

Take `O=C(O)c1ccc(-c2ccc(/C=C3\SC(=S)N(Cc4ccccc4)C3=O)o2)cc1` [LA1, (Z)-4-(5-((3-benzyl-4-oxo-2-thioxothiazolidin-5-ylidene)methyl)furan-2-yl)benzoic acid]: the liver repair entry in data set [1] was “enhance liver repair”. In addition, the renal ischemia/reperfusion injury entry in data set [2] was “reduce renal ischemia/reperfusion injury”. Moreover, the liver fibrosis entry in data set [3] is “reduce liver fibrosis”. Further, the “tumor growth and re-growth” value in the data set with tumor was “reduced tumor growth and re-growth”. Also, the hyperoxia-dependent lung injury entry in data set [4] is reported as “reduce hyperoxia-dependent lung injury”. Also, the allograft survival entry in data set [5] was “increase allograft survival”. For the same compound, the recruitment of leukocytes result in the data set on leukocytes is “reduce recruitment of leukocytes”. Further, the neointimal thickening result in data set [6] was “reduce neointimal thickening”.
